Source: patent publication US20240156723A1, “DEPOT COMPOSITIONS FOR VESICULAR MONOAMINE TRANSPORTER 2 (VMAT2) INHBITORS” (Foresee Pharmaceuticals Co., Ltd., priority 2022, published 2024)
Values belong to the compound of their own block, whether it stands above or below them.

Experiments:
[1] = particle size distribution by laser diffraction (Mastersizer 3000); assay type: physicochemical; conditions: re-dispersed in 0.2% Tween 20 deionized water
Experimental: Briefly, 10 mg/mL (+)-TBZ or (±)-d6-TBZ recrystallized crystal was re-dispersed in 0.2% Tween 20 deionized water with a rigorous vortex. The microscopy was conducted using the optical microscope Leica DMi8, with 100-fold magnification. The PSD was measured using laser diffraction method, with Mastersizer 3000 (Malvern, UK). Before particle sizing, the 10 mg/mL (+)-TBZ crystal was re-dispersed in 0.2% Tween 20 deionized water and sonicated for ˜10 sec.
Briefly, 10 mg/mL (+)-TBZ recrystallized crystal was re-dispersed in 0.2% Tween 20 deionized water with a rigorous vortex. The microscopy was conducted using the optical microscope Leica DMi8, with 100-fold magnification. The PSD was measured using laser diffraction method, with Mastersizer 3000 (Malvern, UK). Before particle sizing, the 10 mg/mL (+)-TBZ crystal was re-dispersed in 0.2% Tween 20 deionized water and sonicated for ˜10 sec.
Four grams of raw (+)-TBZ crystals were jet milled in a 20 mm milling chamber at room temperature (Micromacinazione, Switzerland). Briefly, the jet mill was connected to high pressure nitrogen for providing the pneumatic forces. The grinding pressure and feeding pressure are set on 2.5 bar and 5 bar, respectively. The feeding rate of raw (+)-TBZ crystal was 1.6 g/m in. The fine (+)-TBZ powder was collected by the cyclone and recovered in a vial. The yield was ˜80%. The PSD was characterized using laser diffraction method, with Mastersizer 3000 (Malvern, UK). Before particle sizing, the 10 mg/mL (+)-TBZ crystal was re-dispersed in 0.2% Tween 20 deionized water and sonicated for ˜10 sec. […]
Four grams of raw cholesterol crystals (Nippon fine chemical, Japan) was jet milled in a 20 mm milling chamber at room temperature (Micromacinazione, Switzerland). The jet mill was connected to high pressure nitrogen for providing the pneumatic forces. The grinding pressure and feeding pressure are set on 2.5 bar and 5 bar, respectively. The feeding rate of raw cholesterol crystal was 1.6 g/m in. The fine CSTR powder was collected by the cyclone and recovered in a vial. The yield was ˜80%. The PSD was characterized using laser diffraction method, with Mastersizer 3000 (Malvern, UK). Before particle sizing, the 10 mg/mL CSTR crystal was re-dispersed in 0.2% Tween 20 deionized water and sonicated for ˜10 sec.
The spray drying was conducted with Mini Spray Dryer B-290, (Buchi, Switzerland). First, 10 grams of raw cholesterol crystal was dissolved in 300 mL isopropanol (IPA) with 35-40° C. heating to obtain a clear solution. The spray drying was conducted at a flow rate of 12.5 ml/min and completed in 2 hours. The fine CSTR particles were collected by the cyclone and recovered in a vial. The yield was about 80%. […] Briefly, 10 mg/mL SPD CSTR was re-dispersed in 0.2% Tween 20 deionized water with a rigorous vortex. The microscopy was conducted using the optical microscope Leica DMi8, with 100-fold magnification. The PSD was characterized using laser diffraction method, with Mastersizer 3000 (Malvern, UK) and the results are shown in Table 12. Before particle sizing, the 10 mg/mL SPD CSTR was re-dispersed in 0.2% Tween 20 deionized water and sonicated for ˜10 sec. […]
4 grams of raw (+)-α-DHTBZ crystals (Wuxi Pharma, China) were jet milled in a 20 mm milling chamber at room temperature (Micromacinazione, Switzerland). Briefly, the jet mill was connected to high pressure nitrogen for providing pneumatic forces, with grinding pressure and feeding pressure set at 4 and 5 bars, respectively. The feeding rate of raw (+)-α-DHTBZ crystals was 1.6 g/m in. Fine milled (+)-α-DHTBZ crystals were collected by the cyclone and recovered in a vial. The yield was ˜80%. The PSD of jet-milled (+)-α-DHTBZ was characterized using laser diffraction method, with Mastersizer 3000 (Malvern, UK). Before particle sizing, the 10 mg jet milled (+)-α-DHTBZ was re-dispersed in 1 mL of 0.2% Tween-20 deionized water and sonicated for ˜10 sec.

[2] = cited from earlier work
solubility in heptane = assay type: physicochemical; conditions: room temperature
dopamine D2 = dopamine D2 (Homo sapiens, UniProt P14416); conditions: dopamine D2 receptor; read-out: off-target binding affinity to dopamine D2; cited from earlier work
Chain of dopamine D2 (P14416 whole entry): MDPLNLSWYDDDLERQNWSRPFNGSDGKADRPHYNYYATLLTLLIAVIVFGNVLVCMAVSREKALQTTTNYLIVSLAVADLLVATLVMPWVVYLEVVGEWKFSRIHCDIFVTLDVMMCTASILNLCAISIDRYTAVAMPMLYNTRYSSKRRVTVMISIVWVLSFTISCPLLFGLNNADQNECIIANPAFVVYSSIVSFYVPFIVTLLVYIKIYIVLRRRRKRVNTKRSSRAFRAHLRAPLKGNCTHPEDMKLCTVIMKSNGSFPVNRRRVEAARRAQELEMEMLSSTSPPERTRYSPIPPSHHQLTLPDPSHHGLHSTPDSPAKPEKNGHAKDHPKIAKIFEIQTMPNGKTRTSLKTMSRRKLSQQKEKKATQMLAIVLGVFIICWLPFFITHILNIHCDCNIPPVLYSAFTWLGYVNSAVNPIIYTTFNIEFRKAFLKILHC

[3] = target: serotonin 5-HT7 receptors (Homo sapiens, UniProt P34969); conditions: serotonin 5-HT7 receptor; read-out: off-target binding affinity to serotonin 5-HT7; cited from earlier work
Chain of serotonin 5-HT7 receptors (P34969 whole entry): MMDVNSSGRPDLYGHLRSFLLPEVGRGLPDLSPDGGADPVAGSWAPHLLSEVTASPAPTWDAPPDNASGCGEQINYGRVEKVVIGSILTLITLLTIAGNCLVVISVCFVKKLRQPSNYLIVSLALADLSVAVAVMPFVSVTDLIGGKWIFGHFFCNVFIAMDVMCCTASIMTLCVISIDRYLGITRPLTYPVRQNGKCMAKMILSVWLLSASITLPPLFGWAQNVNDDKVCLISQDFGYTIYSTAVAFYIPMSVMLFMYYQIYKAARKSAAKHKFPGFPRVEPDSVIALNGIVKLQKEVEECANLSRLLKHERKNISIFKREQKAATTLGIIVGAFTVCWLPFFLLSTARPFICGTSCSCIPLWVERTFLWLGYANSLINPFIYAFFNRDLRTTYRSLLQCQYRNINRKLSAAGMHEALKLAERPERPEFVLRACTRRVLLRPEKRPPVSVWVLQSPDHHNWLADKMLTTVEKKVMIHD

[4] = listed as 3 g rex (+)-TBZ-1 iii

Compound: COc1cc2c(cc1OC)C1CC(O)C(CC(C)C)CN1CC2 (single isomer, unassigned; (+)) [(+)-(α)-DHTBZ, [+]-α-dihydrotetrabenazine]
D10 (μm) [1]: 5 μm | D50 (μm) [1]: 13 μm | D90 (μm) [1]: 40 μm

Compound: COc1cc2c(cc1OC)[C@H]1C[C@@H](O)[C@H](CC(C)C)CN1CC2 [(−)-(α)-DHTBZ, [−]-α-dihydrotetrabenazine]
Ki (dopamine D2): 180 nM | Ki [3]: 71 nM

Compound: COc1cc2c(cc1OC)[C@H]1C[C@@H](OC(=O)[C@@H](N)C(C)C)[C@H](CC(C)C)CN1CC2 [VBZ, L-Valine, (2R,3R,11bR)-1,3,4,6,7,11b-hexahydro-9,10-dimethoxy-3-(2-methylpropyI)-2H-benzo[a]quinolizin-2-yl ester]
oral bioavailability [2]: ~50%

Compound: [−]-β-dihydrotetrabenazine [(−)-(β)-DHTBZ]
Ki (dopamine D2): 53 nM | Ki [3]: 5.9 nM

Further lines, with some results ahead:

D10 (μm) [1]: 4.2 μm | D50 (μm) [1]: 9.2 μm | D90 (μm) [1]: 20.1 μm
Compound: COc1cc2c(cc1OC)C1CC(=O)C(CC(C)C)CN1CC2 (racemic) [TBZ, 1,3,4,6,7,11b-hexahydro-9,10-dimethoxy-3-(2-methoxylrpopryl)-2H-benzo(a)quinoline-2-one, reference compound]
oral bioavailability [2]: 17%

D10 (μm) ([1]; listed as 3 g rex (+)-TBZ-1 i): 17.3 μm | D50 (μm) ([1]; listed as 3 g rex (+)-TBZ-1 i): 38.5 μm | D90 (μm) ([1]; listed as 3 g rex (+)-TBZ-1 i): 75.0 μm | D10 (μm) ([1]; listed as 3 g rex (+)-TBZ-1 ii): 22.0 μm | D50 (μm) ([1]; listed as 3 g rex (+)-TBZ-1 ii): 45.9 μm | D90 (μm) ([1]; listed as 3 g rex (+)-TBZ-1 ii): 85.7 μm | D10 (μm) [1, 4]: 16.6 μm | D50 (μm) [1, 4]: 33.7 μm | D90 (μm) [1, 4]: 60.7 μm | D10 (μm) ([1]; listed as 12 g rex (+)-TBZ i): 15.9 μm | D50 (μm) ([1]; listed as 12 g rex (+)-TBZ i): 34.9 μm | D90 (μm) ([1]; listed as 12 g rex (+)-TBZ i): 65.8 μm | D10 (μm) ([1]; listed as 12 g rex (+)-TBZ ii): 17.7 μm | D50 (μm) ([1]; listed as 12 g rex (+)-TBZ ii): 40.8 μm | D90 (μm) ([1]; listed as 12 g rex (+)-TBZ ii): 80.4 μm | D10 (μm) ([1]; listed as 12 g rex (+)-TBZ iii): 16.7 μm | D50 (μm) ([1]; listed as 12 g rex (+)-TBZ iii): 38 μm | D90 (μm) ([1]; listed as 12 g rex (+)-TBZ iii): 76 μm | D10 (μm) ([1]; listed as Jet milled (+)-TBZ): 2.5 μm | D50 (μm) ([1]; listed as Jet milled (+)-TBZ): 5.2 μm | D90 (μm) ([1]; listed as Jet milled (+)-TBZ): 11.8 μm | D10 (μm) ([1]; listed as Raw (+)-TBZ): 14.3 μm | D50 (μm) ([1]; listed as Raw (+)-TBZ): 66.5 μm | D90 (μm) ([1]; listed as Raw (+)-TBZ): 184 μm | solubility in heptane (solubility in heptane): < 0.4 % by weight
Compound: COc1cc2c(cc1OC)[C@H]1CC(=O)[C@H](CC(C)C)CN1CC2 [(+)-TBZ, (3R,11bR)-tetrabenazine]

D50 (μm) [1]: 27.3 μm | D10 (μm) ([1]; listed as Jet milled CSTR): 0.3 μm | D50 (μm) ([1]; listed as Jet milled CSTR): 4.6 μm | D90 (μm) ([1]; listed as Jet milled CSTR): 12 μm | D10 (μm) ([1]; listed as Raw CSTR): 14.1 μm | D50 (μm) ([1]; listed as Raw CSTR): 27.3 μm | D90 (μm) ([1]; listed as Raw CSTR): 48 μm | D10 (μm) ([1]; listed as Spray dried CSTR): 0.2 μm | D50 (μm) ([1]; listed as Spray dried CSTR): 2.0 μm | D90 (μm) ([1]; listed as Spray dried CSTR): 5.0 μm | solubility in heptane (solubility in heptane): > 10 % by weight
Compound: CC(C)CCC[C@@H](C)[C@H]1CC[C@H]2[C@@H]3CC=C4C[C@@H](O)CC[C@]4(C)[C@H]3CC[C@]12C [cholesterol]

D10 (μm) [1]: 12.3 μm | D50 (μm) [1]: 25.6 μm | D90 (μm) [1]: 45.4 μm
Compound: (RR, SS)-1,3,4,6,7,11b-hexahydro-9, 10-di(methoxy-d3)-3-(2-methylpropyl) 2H-benzo[a]quinolizin-2-one [(±)-d6-TBZ, reference compound]
